Test results: US11554171B2, “Compounds and methods for the targeted degradation of bromodomain-containing proteins” (Arvinas Operations, Inc., priority 2015, dated 2023)

Tested on: c-myc in 22RV-1 cells
Experiment: Human c-myc ELISA assay
Assay type: cell-based
Details: Homo sapiens; for Emax: 22Rv1, 18 h, read-out: Degradation of BRD4: Maximum inhibition (%) c-Myc ELISA in 22RV1 cells; for DC50: 22Rv1, read-out: Degradation of BRD4: DC50 (uM) c-Myc ELISA in 22RV1 cells
In short: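 c-myc levels measured by ELISA in RIPA lysates of 22RV-1 cells, calibrated with a 333-0 pg/ml standard curve. Lysates came from cells exposed for 18 h to an 8-point, 1:3 dose series starting at 300 nM or 1 μM final in 0.1% DMSO. Suppression potency given as DC50.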

SMILES | DC50 | Emax
Cc1ncsc1-c1ccc([C@H](C)NC(=O)[C@@H]2C[C@@H](O)CN2C(=O)[C@@H](NC(=O)/C=C/c2cc(F)cc(OC(C)CNC(=O)C[C@@H]3N=C(c4ccc(Cl)cc4)c4c(sc(C)c4C)-n4c(C)nnc43)c2)C(C)(C)C)cc1 (some centres unmarked) [Example 188] | < 0.01 µM | 95.4%
Cc1ncsc1-c1ccc([C@H](C)NC(=O)[C@@H]2C[C@@H](O)CN2C(=O)[C@@H](NC(=O)COc2ccnc(O[C@H]3C[C@@H](NC(=O)C[C@@H]4N=C(c5ccc(Cl)cc5)c5c(sc(C)c5C)-n5c(C)nnc54)C3)c2)C(C)(C)C)cc1 [Example 189] | 0.01 to 0.1 µM | 95.9%
Cc1ncsc1-c1ccc(CNC(=O)[C@@H]2C[C@@H](O)CN2C(=O)[C@@H](NC(=O)COc2ccccc2O[C@H]2C[C@@H](NC(=O)C[C@@H]3N=C(c4ccc(Cl)cc4)c4c(sc(C)c4C)-n4c(C)nnc43)C2)C(C)(C)C)cc1 [Example 190] | 0.01 to 0.1 µM | 91%
Cc1ncsc1-c1ccc([C@H](C)NC(=O)[C@@H]2C[C@@H](O)CN2C(=O)[C@@H](NC(=O)CCc2ccnc(O[C@H]3C[C@@H](NC(=O)C[C@@H]4N=C(c5ccc(Cl)cc5)c5c(sc(C)c5C)-n5c(C)nnc54)C3)c2)C(C)(C)C)cc1 [Example 191] | < 0.01 µM | 95%
Cc1ncsc1-c1ccc([C@H](C)NC(=O)[C@@H]2C[C@@H](O)CN2C(=O)[C@@H](NC(=O)Cc2ccc(O[C@H]3C[C@H](NC(=O)C[C@@H]4N=C(c5ccc(Cl)cc5)c5c(sc(C)c5C)-n5c(C)nnc54)C3)cc2)C(C)(C)C)cc1 [Example 193, (2S,4R)-1-[(2S)-3,3-dimethyl-2-(2-{4-[(1,3trans)-3-{2-[(9S)-7-(4-chlorophenyl)-4,5,13-trimethyl-3-thia-1,8,11,12-tetraazatricyclo[8.3.0.0^2,^6]trideca-2(6),4,7,10,12-pentaen-9-yl]acetamido}cyclobutoxy]phenyl}acetamido)butanoyl]-4-hydroxy-N-[(1S)-1-[4-(4-methyl-1,3-thiazol-5-yl)phenyl]ethyl]pyrrolidine-2-carboxamide] | < 0.01 µM | 100%
Cc1ncsc1-c1ccc([C@H](C)NC(=O)[C@@H]2C[C@@H](O)CN2C(=O)[C@@H](NC(=O)Cc2cccc(O[C@H]3C[C@H](NC(=O)C[C@@H]4N=C(c5ccc(Cl)cc5)c5c(sc(C)c5C)-n5c(C)nnc54)C3)c2)C(C)(C)C)cc1 [Example 194] | < 0.01 µM | 92.4%
Cc1ncsc1-c1ccc([C@H](C)NC(=O)[C@@H]2C[C@@H](O)CN2C(=O)[C@@H](NC(=O)/C=C/c2cc(O[C@@H](C)CNC(=O)C[C@@H]3N=C(c4ccc(Cl)cc4)c4c(sc(C)c4C)-n4c(C)nnc43)ccc2F)C(C)(C)C)cc1 [Example 196] | < 0.01 µM | 94.5%
Cc1ncsc1-c1ccc([C@H](C)NC(=O)[C@@H]2C[C@@H](O)CN2C(=O)[C@@H](NC(=O)/C=C/c2cc(O[C@H](C)CNC(=O)C[C@@H]3N=C(c4ccc(Cl)cc4)c4c(sc(C)c4C)-n4c(C)nnc43)ccc2F)C(C)(C)C)cc1 [Example 197] | < 0.01 µM | 91.5%
Cc1ncsc1-c1ccc(CNC(=O)[C@@H]2C[C@@H](O)CN2C(=O)[C@@H](C(C)C)n2cc(-c3cccc(O[C@@H](C)CNC(=O)C[C@@H]4N=C(c5ccc(Cl)cc5)c5c(sc(C)c5C)-n5c(C)nnc54)c3)cn2)cc1 [Example 198] | > 1 µM | 16%
Cc1ncsc1-c1ccc([C@H](C)NC(=O)[C@@H]2C[C@@H](O)CN2C(=O)[C@@H](NC(=O)/C=C/c2cc(F)cc(O[C@H](C)CNC(=O)C[C@@H]3N=C(c4ccc(Cl)cc4)c4c(sc(C)c4C)-n4c(C)nnc43)c2)C(C)(C)C)cc1 [Example 202] | < 0.01 µM | 94%
Cc1ncsc1-c1ccc([C@H](C)NC(=O)[C@@H]2C[C@@H](O)CN2C(=O)[C@@H](NC(=O)CCc2cc(F)cc(O[C@H](C)CNC(=O)C[C@@H]3N=C(c4ccc(Cl)cc4)c4c(sc(C)c4C)-n4c(C)nnc43)c2)C(C)(C)C)cc1 [Example 203] | < 0.01 µM | 92%
Cc1ncsc1-c1ccc([C@H](C)NC(=O)[C@@H]2C[C@@H](O)CN2C(=O)[C@@H](NC(=O)c2cc3cc(O[C@H]4C[C@H](NC(=O)C[C@@H]5N=C(c6ccc(Cl)cc6)c6c(sc(C)c6C)-n6c(C)nnc65)C4)ccc3o2)C(C)(C)C)cc1 [Example 207, (2S,4R)-1-[(2S)-3,3-dimethyl-2-({5-[(1,3trans)-3-{2-[(9S)-7-(4-chlorophenyl)-4,5,13-trimethyl-3-thia-1,8,11,12-tetraazatricyclo[8.3.0.0^2,^6]trideca-2(6),4,7,10,12-pentaen-9-yl]acetamido}cyclobutoxy]-1-benzofuran-2-yl}formamido)butanoyl]-4-hydroxy-N-[(1S)-1-[4-(4-methyl-1,3-thiazol-5-yl)phenyl]ethyl]pyrrolidine-2-carboxamide] | < 0.01 µM | 89.5%
Cc1ncsc1-c1ccc([C@H](C)NC(=O)[C@@H]2C[C@@H](O)CN2C(=O)C(C(C)C)n2cc(-c3cc(F)cc(O[C@@H](C)CNC(=O)C[C@@H]4N=C(c5ccc(Cl)cc5)c5c(sc(C)c5C)-n5c(C)nnc54)c3)cn2)cc1 (some centres unmarked) [Example 208] | < 0.01 µM | 92%
Cc1ncsc1-c1ccc([C@H](C)NC(=O)[C@@H]2C[C@@H](O)CN2C(=O)[C@@H](NC(=O)COc2cc(F)cc(O[C@H]3C[C@@H](NC(=O)C[C@@H]4N=C(c5ccc(Cl)cc5)c5c(sc(C)c5C)-n5c(C)nnc54)C3)c2)C(C)(C)C)cc1 [Example 209] | < 0.01 µM | 90%
Cc1ncsc1-c1ccc([C@H](C)NC(=O)[C@@H]2C[C@@H](O)CN2C(=O)[C@@H](NC(=O)c2cc3ccc(OCCNC(=O)C[C@@H]4N=C(c5ccc(Cl)cc5)c5c(sc(C)c5C)-n5c(C)nnc54)cc3o2)C(C)(C)C)cc1 [Example 210, (2S,4R)-1-[(2S)-2-{[6-(2-{2-[(9S)-7-(4-chlorophenyl)-4,5,13-trimethyl-3-thia-1,8,11,12-tetraazatricyclo[8.3.0.0^2,^6]trideca-2(6),4,7,10,12-pentaen-9-yl]acetamido}ethoxy)-1-benzofuran-2-yl]formamido}-3,3-dimethylbutanoyl]-4-hydroxy-N-[(1S)-1-[4-(4-methyl-1,3-thiazol-5-yl)phenyl]ethyl]pyrrolidine-2-carboxamide] | < 0.01 µM | 100%

Continued, in another order:

DC50 | SMILES | Emax
< 0.01 µM | Cc1ncsc1-c1ccc([C@H](C)NC(=O)[C@@H]2C[C@@H](O)CN2C(=O)[C@@H](NC(=O)CCc2ccnc(O[C@H]3C[C@H](NC(=O)C[C@@H]4N=C(c5ccc(Cl)cc5)c5c(sc(C)c5C)-n5c(C)nnc54)C3)c2)C(C)(C)C)cc1 [Example 192] | 93%
< 0.01 µM | Cc1ncsc1-c1ccc(CNC(=O)[C@@H]2C[C@@H](O)CN2C(=O)[C@H](C(C)C)n2cc(-c3cccc(O[C@@H](C)CNC(=O)C[C@@H]4N=C(c5ccc(Cl)cc5)c5c(sc(C)c5C)-n5c(C)nnc54)c3)cn2)cc1 [Example 199] | 93%
< 0.01 µM | Cc1ncsc1-c1ccc([C@H](C)NC(=O)[C@@H]2C[C@@H](O)CN2C(=O)[C@@H](NC(=O)CCc2cc(F)cc(O[C@@H](C)CNC(=O)C[C@@H]3N=C(c4ccc(Cl)cc4)c4c(sc(C)c4C)-n4c(C)nnc43)c2)C(C)(C)C)cc1 [Example 200] | 96.5%
< 0.01 µM | Cc1ncsc1-c1ccc([C@H](C)NC(=O)[C@@H]2C[C@@H](O)CN2C(=O)[C@@H](NC(=O)/C=C/c2cc(F)cc(O[C@@H](C)CNC(=O)C[C@@H]3N=C(c4ccc(Cl)cc4)c4c(sc(C)c4C)-n4c(C)nnc43)c2)C(C)(C)C)cc1 [Example 201] | 94.1%
0.01 to 0.1 µM | Cc1ncsc1-c1ccc([C@H](C)NC(=O)[C@@H]2C[C@@H](O)CN2C(=O)[C@@H](NC(=O)Cc2cccc(O[C@H]3C[C@@H](NC(=O)C[C@@H]4N=C(c5ccc(Cl)cc5)c5c(sc(C)c5C)-n5c(C)nnc54)C3)c2)C(C)(C)C)cc1 [Example 204] | 88%
< 0.01 µM | Cc1ncsc1-c1ccc([C@H](C)NC(=O)[C@@H]2C[C@@H](O)CN2C(=O)[C@@H](NC(=O)c2cc3cc(O[C@@H](C)CNC(=O)C[C@@H]4N=C(c5ccc(Cl)cc5)c5c(sc(C)c5C)-n5c(C)nnc54)ccc3o2)C(C)(C)C)cc1 [Example 205, (2S,4R)-1-[(2S)-2-[(5-{[(2S)-1-{2-[(9S)-7-(4-chlorophenyl)-4,5,13-trimethyl-3-thia-1,8,11,12-tetraazatricyclo[8.3.0.0^2,^6]trideca-2(6),4,7,10,12-pentaen-9-yl]acetamido}propan-2-yl]oxy}-1-benzofuran-2-yl)formamido]-3,3-dimethylbutanoyl]-4-hydroxy-N-[(1S)-1-[4-(4-methyl-1,3-thiazol-5-yl)phenyl]ethyl]pyrrolidine-2-carboxamide] | 91%
< 0.01 µM | Cc1ncsc1-c1ccc([C@H](C)NC(=O)[C@@H]2C[C@@H](O)CN2C(=O)[C@@H](NC(=O)c2cc3cc(O[C@H](C)CNC(=O)C[C@@H]4N=C(c5ccc(Cl)cc5)c5c(sc(C)c5C)-n5c(C)nnc54)ccc3o2)C(C)(C)C)cc1 [Example 206, (2S,4R)-1-[(2S)-2-[(5-{[(2R)-1-{2-[(9S)-7-(4-chlorophenyl)-4,5,13-trimethyl-3-thia-1,8,11,12-tetraazatricyclo[8.3.0.0^2,^6]trideca-2(6),4,7,10,12-pentaen-9-yl]acetamido}propan-2-yl]oxy}-1-benzofuran-2-yl)formamido]-3,3-dimethylbutanoyl]-4-hydroxy-N-[(1S)-1-[4-(4-methyl-1,3-thiazol-5-yl)phenyl]ethyl]pyrrolidine-2-carboxamide] | 90%
